# Entries after “also recorded” stand apart in the source; their conditions may differ.
# Legend:
# Format in all cases: in vivo, human
# [1] = system: patients with chronic cystitis and CPPS; assay: Open Anakinra trial, symptom score
# Protocol: The applicants have performed an open Anakinra trial in patients with chronic inflammatory conditions in the lower urinary tract, specifically chronic cystitis and CPPS. This structured observational study to investigate the effect of treatment with Anakinra in patients suffering from chronic cystitis and CPPS.
# Inclusion visit: Patient is informed about the study and is included after signed informed consent is obtained. A structured interview and clinical investigation is performed. The disease severity is evaluated using a symptom score. Follow-up visits are booked.
# A structured interview and clinical investigation is performed. Symptom severity is recorded.
# Treatment with Anakinra is started and continued for seven days (until next visit).
# Evaluation of effect after one week of treatment with Anakinra. A structured interview and clinical investigation are performed. Symptom severity is evaluated. Patients with no treatment effect are excluded from further treatment.
# Follow-up after treatment pause. A structured interview and clinical investigation is performed. Symptom severity is evaluated. If the patient has relapse, Anakinra treatment is resumed.
# Follow-up with evaluation of effect after three weeks of treatment with Anakinra. A structured interview and clinical investigation is performed. Symptom severity is evaluated.
# Final visit after pause of treatment with Anakinra. A structured interview and clinical investigation is performed. Symptom severity is evaluated.
# During patient visits, structured interviews evaluating symptoms (including consumption of medications) and clinical investigations are performed. Throughout the study period, the patients make daily symptom scores regarding pain, urination, sense of urgency and quality of life following a structured formula.
# [2] = system: Substance P; assay: Ten-patient CPPS trial: urine neuropeptides; settings: P<0.001
# Protocol: (§1) A significant reduction in pain, urgency and frequency of urination was recorded in 9/10 patients (FIGS. 7c, 7d and 7e). Laboratory samples were obtained at diagnosis, after the initiation of anakinra treatment (n=10), during the “treatment break” and after continuation of anakinra treatment (n=9). Urine neuropeptides involved in the pain response (Substance P) were inhibited, with a biphasic response following the symptom score (FIG. 7f).
# [3] = system: patients with chronic pelvic pain syndrome (CPPS); assay: Investigator driven open trial, ten CPPS patients: symptoms, quality of life, side effects
# Protocol: Here we identify that IL-1RA treatment may be useful to alleviate bladder pain. The hypothesis was evaluated by enrolling ten patients with chronic pelvic pain syndrome, (CPPS) in an investigator driven open trial (see below and FIG. 7). The patients received daily anakinra treatment (100 mg) until a stable response was observed. Treatment was then transiently interrupted and when the symptoms returned, treatment was resumed. Patient 10 remained asymptomatic.
# Ten patients with a long history of CPPS were enrolled after informed consent (age, gender, disease profile) and instructed to fill in a questionnaire detailing frequency of urination, pain, frequency of pain medication and quality of life.
# as §1
# [4] = system: Substance P; assay: BPS trial: urine Substance P / neuropeptide levels; settings: for urine SP / neuropeptide levels, words: in vivo
# Excerpt: (§2) a) Schematic of the study protocol. Ten patients with a long history of BPS (ref EAU guidelines) were enrolled after informed consent and instructed to fill in a questionnaire detailing frequency of urination, pain, frequency of pain medication and quality of life. Laboratory samples were obtained at diagnosis, after the initiation of Kineret treatment (n=10), during the “treatment break” and after continuation of Kineret treatment (n=9). Neuropeptides involved in the pain response (Substance P) were quantified in urine. Peripheral blood RNA was subjected to genome wide transcriptomic analysis to define molecular effects of Kineret treatment.
# [5] = system: neuro-inflammation, TLR dependent pattern recognition and IL-1 signaling; IL-1R1 dependent gene network; assay: BPS trial: transcriptomic analysis of peripheral blood RNA; settings: for gene expression, words: peripheral blood RNA
# Excerpt: as §2
# To further understand the molecular basis of these effects, gene expression was analyzed longitudinally in RNA samples obtained; at onset, when the patients were in pain; at the time of maximum treatment effect in the first round; when pain returned during the treatment break; after reintroduction of Anakinra and at follow up, after 1-2 years of treatment. […] Due to the pronounced effect on IL-1 related genes, we further investigated a gene network downstream of IL-1R1. In 8 out of 10 patients a marked reduction in IL-1R1 dependent gene expression was detected, primarily genes including CXCL1, IL1RAP CXCL3 and the IL1R1 gene itself.
# [6] = system: WBC and Interleukins (IL6, IL8 and IL1b) in urine; assay: Nine-patient study: estimated WBC and Interleukins in urine; settings: prior, during or after treatment
# Excerpt: The effect of anakinra in the treatment of CPPS was studied in a clinical study. Inclusion criteria were CPPS mainly with the Bladder Pain phenotype, but also the with the Urethral and Prostate Pain phenotype. Exclusion criteria were uncontrolled diabetes mellitus, treatment for malignant disease within the preceding 10 years, pregnancy and age <18 years and ongoing infectious diseases, including urinary tract infections, and neutropenia (<1.5×10^9/L). Patients gave informed consent for the use of unidentified personal clinical data for research purposes. Included patients were examined using clinical standard methods to rule out any ongoing disease. Blood and serum for hemoglobulin, liver and kidney function tests and White Blood Cell (WBC) counts were analysed. Urine was obtained for dip stick test (leukocytesteras for WBC estimation, the nitur test for ruling out bacteriuria), standard urinary Interleukins (IL6, IL8 and IL1b) and for urine culture. Cystoscopy and CT urography were performed in all patients. Blood and serum analysis and cystoscopy were repeated approximately two weeks after the start of treatment, and after approximately three months. Nine patients were recruited (Table 2).
substance,measurement,setting,value
"anakinra: interleukin-1 receptor antagonist (r-metHuIL-1ra) produced in Escherichia coli; recombinant, slightly modified version of the human interleukin-1 receptor antagonist protein",patients in whom treatment was proven effective (decrease in symptom scoring),[1]; in vivo,60%
same,Symptom Score Decrease at 1 week of treatment (number of patients),[1]; of 15 patients recruited,9
same,Symptom Score No Decrease at 1 week of treatment (number of patients),[1]; of 15 patients recruited,6
same,"urine neuropeptide (Substance P) levels, words",[2],markedly reduced; also recorded: inhibited
same,"symptom score (pain and frequency), words",[3]; P<0.01,reduction in symptom score
same,"quality of life, words",[3]; P<0.02,increase in quality of life
same,patients with dramatic clinical effects,"[3]; daily 100 mg, ten CPPS patients",9/10
same,duration of symptom relief,[3]; range over patients,0.5 to 8 days
same,time to symptom relief after the first dose,[3]; range over patients,1 to 6 h
same,"patients with significant reduction in pain, urgency and frequency of urination",[3]; ten CPPS patients,9/10
same,side effects,"[3]; ten CPPS patients, 100 mg",Two patients reported local irritation at the injection site; also recorded: one patient developed neutropenia
same,patients with reduced SP levels,[4]; first treatment round,9/10
same,"urine SP / neuropeptide levels, words",[4],markedly decreased
same,"urine SP / neuropeptide levels, words",[4]; listed as Kineret,rapid reduction
same,patients with marked reduction in IL-1R1 dependent gene expression,"[5]; genes including CXCL1, IL1RAP, CXCL3, IL1R1",8 out of 10
same,"gene expression, words",[5],inhibited by treatment
same,"gene expression, words",[5]; listed as Kineret,inhibited
same,"estimated WBC and Interleukins in urine, words",[6],not significantly increased

# — patent publication US20220252625A1, “TREATMENT AND DIAGNOSIS OF CHRONIC INFLAMMATORY CONDITIONS IN THE LOWER URINARY TRACT” (SELECTIMMUNE PHARMA AB, priority 2019, published 2022)
